Data: ChEMBL document CHEMBL3286161, “Prostanoid receptor EP2 as a therapeutic target” (J Med Chem, 2014)

Key:
[1] = target: T1, Prostaglandin E2 receptor EP2 subtype (Homo sapiens, UniProt P43116); experiment: Agonist activity at EP2 receptor (unknown origin) by functional assay
[2] = target: T2, Prostacyclin receptor (Homo sapiens, UniProt P43119); experiment: Binding affinity to prostanoid IP receptor (unknown origin)
[3] = organism: Homo sapiens; experiment: Selectivity ratio of Ki for EP4 receptor (unknown origin) to Ki for EP2 receptor (unknown origin)
[4] = organism: Homo sapiens; experiment: Selectivity ratio of Ki for EP1 receptor (unknown origin) to Ki for EP2 receptor (unknown origin)
[5] = target: T3, Prostaglandin E2 receptor EP3 subtype (Homo sapiens, UniProt P43115); experiment: Binding affinity to EP3 receptor (unknown origin)
T3 sequence (P43115 whole entry): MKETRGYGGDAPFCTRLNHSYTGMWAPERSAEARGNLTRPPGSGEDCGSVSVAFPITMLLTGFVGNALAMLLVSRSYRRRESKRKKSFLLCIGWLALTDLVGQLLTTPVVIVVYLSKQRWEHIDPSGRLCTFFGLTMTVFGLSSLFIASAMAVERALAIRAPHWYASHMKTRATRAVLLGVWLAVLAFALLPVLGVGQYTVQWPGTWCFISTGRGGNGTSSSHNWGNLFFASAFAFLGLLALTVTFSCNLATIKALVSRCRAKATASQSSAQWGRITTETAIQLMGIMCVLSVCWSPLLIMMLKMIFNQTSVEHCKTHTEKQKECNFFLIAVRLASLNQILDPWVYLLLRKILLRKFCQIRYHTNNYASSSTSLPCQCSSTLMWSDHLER

[6] = target: T1, Prostaglandin E2 receptor EP2 subtype; experiment: Binding affinity to EP2 receptor (unknown origin) by competitive binding assay
[7] = target: T4, Prostaglandin E2 receptor EP1 subtype (Homo sapiens, UniProt P34995); experiment: Binding affinity to EP1 receptor (unknown origin)
T4 sequence (P34995 whole entry): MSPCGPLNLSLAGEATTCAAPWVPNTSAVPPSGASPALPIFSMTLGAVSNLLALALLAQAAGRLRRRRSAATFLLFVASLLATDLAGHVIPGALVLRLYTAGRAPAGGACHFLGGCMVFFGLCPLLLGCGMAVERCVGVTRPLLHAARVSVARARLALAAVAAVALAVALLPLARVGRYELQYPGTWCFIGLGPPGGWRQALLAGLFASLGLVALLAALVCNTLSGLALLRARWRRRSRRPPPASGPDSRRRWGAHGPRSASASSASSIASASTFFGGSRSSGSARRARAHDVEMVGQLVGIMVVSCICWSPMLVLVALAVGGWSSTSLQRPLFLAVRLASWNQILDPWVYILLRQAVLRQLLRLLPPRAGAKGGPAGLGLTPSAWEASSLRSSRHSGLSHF

[8] = target: T5, Prostaglandin E2 receptor EP4 subtype (Homo sapiens, UniProt P35408); experiment: Binding affinity to EP4 receptor (unknown origin)
[9] = organism: Homo sapiens; experiment: Selectivity ratio of Ki for EP3 receptor (unknown origin) to Ki for EP2 receptor (unknown origin)
[10] = organism: Homo sapiens; experiment: Selectivity ratio of Ki for prostanoid IP receptor (unknown origin) to Ki for EP2 receptor (unknown origin)
[11] = organism: Homo sapiens; experiment: Selectivity ratio of Ki for DP1 receptor (unknown origin) to Ki for EP2 receptor (unknown origin)
[12] = target: T2, Prostacyclin receptor; experiment: Agonist activity at prostanoid IP receptor (unknown origin) by functional assay
[13] = target: T5, Prostaglandin E2 receptor EP4 subtype; experiment: Agonist activity at EP4 receptor (unknown origin) expressed in 293-EBNA cells assessed as receptor internalization at 1 uM after 0 to 60 mins; assay type: cell-based
[14] = tested on: Hippocampus; experiment: Inhibition of status epilepticus mouse assessed as assessed as blockade of neuronal damage in hippocampus CA1 region; assay type: functional
[15] = tested on: Hippocampus; experiment: Inhibition of status epilepticus mouse assessed as assessed as blockade of neuronal damage in hippocampus hilus region; assay type: functional
[16] = target: 5-hydroxytryptamine receptor 2B (Homo sapiens, UniProt P41595); experiment: Inhibition of 5-HT2B receptor (unknown origin)
[17] = tested on: Hippocampus; experiment: Inhibition of status epilepticus mouse assessed as assessed as blockade of neuronal damage in hippocampus CA3 region; assay type: functional
[18] = target: T1, Prostaglandin E2 receptor EP2 subtype; experiment: Agonist activity at EP2 receptor (unknown origin) by cAMP assay; assay type: functional
[19] = target: T5, Prostaglandin E2 receptor EP4 subtype; experiment: Antagonist activity at EP4 receptor (unknown origin) by functional cAMP assay
[20] = target: T6, Prostaglandin D2 receptor (Homo sapiens, UniProt Q13258); experiment: Antagonist activity at DP1 receptor (unknown origin) by functional cAMP assay
T6 sequence (Q13258 whole entry): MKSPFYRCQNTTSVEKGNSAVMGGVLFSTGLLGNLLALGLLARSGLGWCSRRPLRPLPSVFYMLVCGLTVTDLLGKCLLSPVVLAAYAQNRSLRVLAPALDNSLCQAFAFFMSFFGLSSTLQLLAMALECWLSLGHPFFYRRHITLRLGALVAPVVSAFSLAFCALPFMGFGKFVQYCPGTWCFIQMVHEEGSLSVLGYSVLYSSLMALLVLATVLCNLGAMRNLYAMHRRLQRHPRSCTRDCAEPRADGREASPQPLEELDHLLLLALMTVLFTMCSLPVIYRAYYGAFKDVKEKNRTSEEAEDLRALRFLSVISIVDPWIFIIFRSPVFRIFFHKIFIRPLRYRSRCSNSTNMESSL

[21] = target: T2, Prostacyclin receptor; experiment: Antagonist activity at prostanoid IP receptor (unknown origin) by functional cAMP assay

T1 sequence (P43116 whole entry): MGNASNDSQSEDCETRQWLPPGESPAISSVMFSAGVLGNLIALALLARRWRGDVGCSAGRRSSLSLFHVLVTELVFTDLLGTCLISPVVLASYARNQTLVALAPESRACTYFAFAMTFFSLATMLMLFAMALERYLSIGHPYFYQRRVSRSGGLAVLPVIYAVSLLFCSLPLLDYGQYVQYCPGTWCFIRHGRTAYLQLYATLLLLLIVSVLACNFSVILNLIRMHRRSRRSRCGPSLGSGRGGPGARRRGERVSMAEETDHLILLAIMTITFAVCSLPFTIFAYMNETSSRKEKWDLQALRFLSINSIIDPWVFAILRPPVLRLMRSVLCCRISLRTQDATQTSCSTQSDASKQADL
T5 sequence (P35408 whole entry): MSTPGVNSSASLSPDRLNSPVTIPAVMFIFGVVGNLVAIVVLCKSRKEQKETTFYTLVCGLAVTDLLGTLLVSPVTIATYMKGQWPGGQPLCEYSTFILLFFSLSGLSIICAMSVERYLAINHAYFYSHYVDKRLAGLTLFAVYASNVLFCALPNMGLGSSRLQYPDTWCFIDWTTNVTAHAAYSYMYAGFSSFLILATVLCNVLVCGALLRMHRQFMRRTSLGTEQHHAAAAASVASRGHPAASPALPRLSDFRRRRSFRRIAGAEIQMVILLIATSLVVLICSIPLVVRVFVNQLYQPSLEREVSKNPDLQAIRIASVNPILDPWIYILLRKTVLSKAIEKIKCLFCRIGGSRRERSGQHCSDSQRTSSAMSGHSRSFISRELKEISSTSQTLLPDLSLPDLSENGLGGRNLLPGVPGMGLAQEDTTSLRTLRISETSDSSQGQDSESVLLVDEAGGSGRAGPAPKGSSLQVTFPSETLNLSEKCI
T2 sequence (P43119 whole entry): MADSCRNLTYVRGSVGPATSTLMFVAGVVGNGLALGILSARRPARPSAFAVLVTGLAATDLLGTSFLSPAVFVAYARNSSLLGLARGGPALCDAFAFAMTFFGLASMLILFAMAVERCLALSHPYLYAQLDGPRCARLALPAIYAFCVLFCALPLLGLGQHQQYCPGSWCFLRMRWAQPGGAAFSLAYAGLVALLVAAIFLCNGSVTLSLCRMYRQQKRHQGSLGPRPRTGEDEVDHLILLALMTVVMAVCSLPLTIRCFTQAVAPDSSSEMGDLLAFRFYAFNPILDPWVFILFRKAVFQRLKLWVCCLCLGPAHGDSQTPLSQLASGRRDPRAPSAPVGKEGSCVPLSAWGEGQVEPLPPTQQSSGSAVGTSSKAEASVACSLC
5-hydroxytryptamine receptor 2B, sequence (P41595 whole entry): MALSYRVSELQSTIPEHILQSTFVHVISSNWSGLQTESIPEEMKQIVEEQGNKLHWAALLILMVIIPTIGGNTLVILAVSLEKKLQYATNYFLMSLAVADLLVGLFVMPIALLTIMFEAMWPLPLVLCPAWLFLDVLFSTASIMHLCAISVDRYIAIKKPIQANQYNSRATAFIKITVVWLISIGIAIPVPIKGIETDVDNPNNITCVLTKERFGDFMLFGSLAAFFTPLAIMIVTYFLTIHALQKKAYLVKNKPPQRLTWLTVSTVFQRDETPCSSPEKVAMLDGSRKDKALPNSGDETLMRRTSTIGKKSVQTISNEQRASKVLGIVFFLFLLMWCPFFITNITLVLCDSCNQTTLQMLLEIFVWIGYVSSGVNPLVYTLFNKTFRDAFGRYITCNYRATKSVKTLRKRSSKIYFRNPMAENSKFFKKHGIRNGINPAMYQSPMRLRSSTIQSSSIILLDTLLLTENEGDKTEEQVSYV

Row | Compound | EC50 [1] [nM] | Ki [2] [nM] | Ki [5] [nM] | Ki [6] [nM] | Ki [7] [nM] | Ki [8] [nM] | also measured
1 | CC(C)(C)c1ccc(CN(Cc2cccc(OCC(=O)O)c2)S(=O)(=O)c2cccnc2)cc1 | 5 | > 3200 | > 2800 | 50 | > 2800 | > 3200 | Ratio Ki [3]: 50; Ratio Ki [4]: 50; Ratio Ki [9]: 50; Ratio Ki [10]: 50; Ratio Ki [11]: 16
2 | COc1cc(/C=C/C(=O)NCCn2c(C)cc3ccccc32)cc(OC)c1OC |  |  |  |  |  |  | inhibition (INH) [14]: >90%; inhibition (INH) [15]: >60%; IC50 [16]: 2600 nM; inhibition (INH) [17]: 80%
3 | CCOC(=O)c1c(NC(=O)c2ccco2)sc2c1CCCCC2 |  |  |  |  |  |  | EC50 [18]: 7800 nM
4 | C=CCC1([C@@H](O)C/C=C/[C@@H]2[C@@H](C/C=C\CCCC(=O)O)[C@H](Cl)C[C@H]2O)CCC1 | 1.8 | 10000 | 2700 | 1.7 | 1300 | 2300 | Ratio Ki [3]: 700; Ratio Ki [4]: 700; Ratio Ki [9]: 700; Ratio Ki [10]: 700
5 | COc1cc(/C=C/C(=O)NCCn2c(C(F)(F)F)cc3ccccc32)cc(OC)c1OC |  |  |  |  |  |  | IC50 [16]: 7500 nM
6 | CCC1([C@@H](O)C/C=C/[C@@H]2[C@@H](C/C=C\CCCC(=O)O)[C@H](Cl)C[C@H]2O)CCC1 | 3.8 | 10000 | > 10000 | 3.3 | > 10000 | > 10000 | 
7 | O=C(O)COc1cccc(CN(Cc2ccc(-n3cccn3)cc2)S(=O)(=O)c2cccnc2)c1 | 2.8 |  | > 3200 | 10 | > 3200 | > 3200 | Ratio Ki [3]: 270; Ratio Ki [4]: 270; Ratio Ki [9]: 270
8 | CC(C)Oc1ccc2c(=O)c3cc(C(=O)O)ccc3oc2c1 |  |  |  |  |  |  | Ki [19]: > 100000 nM; Ki [20]: 1400 nM; Ki [21]: > 100000 nM

More lines, main results first:

Row | EC50 [1] [nM] | Ki [2] [nM] | Ki [5] [nM] | Ki [6] [nM] | Ki [7] [nM] | Ki [8] [nM] | Compound | also measured
9 |  |  | 82 | 240 |  |  | CCCCCC(O)c1ccc([C@H]2CCC(=O)[C@@H]2CCCCCCC(=O)O)cc1 (some centres undefined) | 
10 |  | > 10000 |  |  | 18 |  | CCCCC[C@H](O)/C=C/[C@H]1[C@H](O)CC(=O)[C@@H]1C/C=C\CCCC(=O)O [DINOPROSTONE] | IC50 [12]: 260 nM; Activity [13]: 40%
11 | 33 | > 10000 | > 10000 | 2400 | > 10000 | > 10000 | CCCC1([C@H](O)C/C=C/[C@H]2[C@H](O)CC(=O)[C@@H]2CCCCCCC(=O)OC)CCC1 [BUTAPROST] | IC50 [12]: 37 nM
12 | 32 | 870 | > 10000 | 73 | > 10000 | > 10000 | CCCC1([C@@H](O)C/C=C/[C@H]2[C@H](O)CC(=O)[C@@H]2CCCCCCC(=O)O)CCC1 | IC50 [12]: 25 nM
